Experimental data: patent US9029563B2, “Substituted 1-benzylindolin-2-one analogs as positive allosteric modulators of muscarinic acetylcholine M1 receptors” (Vanderbilt University, priority 2012, dated 2015)

Biological target: T1, mAChR M1 (UniProt P08482)
T1 sequence (P08482 1-460): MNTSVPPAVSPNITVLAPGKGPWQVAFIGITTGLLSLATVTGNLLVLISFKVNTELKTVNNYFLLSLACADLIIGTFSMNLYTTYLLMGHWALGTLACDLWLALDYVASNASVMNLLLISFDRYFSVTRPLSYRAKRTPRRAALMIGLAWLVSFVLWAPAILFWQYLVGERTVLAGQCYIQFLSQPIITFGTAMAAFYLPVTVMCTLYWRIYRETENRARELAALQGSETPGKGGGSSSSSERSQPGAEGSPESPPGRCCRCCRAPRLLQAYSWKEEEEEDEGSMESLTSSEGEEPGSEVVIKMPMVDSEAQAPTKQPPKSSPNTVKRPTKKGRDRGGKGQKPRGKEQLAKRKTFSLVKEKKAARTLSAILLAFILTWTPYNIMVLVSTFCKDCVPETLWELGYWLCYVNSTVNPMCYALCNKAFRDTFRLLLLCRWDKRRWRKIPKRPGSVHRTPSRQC
Test: mAChR M1 cell-based functional assay (calcium mobilization, PAM mode)
Conditions: for EC50: potentiation of EC20 acetylcholine response, calcium flux in CHO-K1 cells expressing mAChR M1, >10 μM is estimated for low potency compounds without plateau; for Emax: Percent of AChmax activity in presence of 30 μM test compound
Source text: Chinese hamster ovary (CHO-K1) cells stably expressing rat (r)M1 were purchased from the American Type Culture Collection and cultured according to their indicated protocol. CHO cells stably expressing human (h)M2, hM3, and hM5 were described previously (Levey et al., 1991); hM1 and hM4 cDNAs were purchased from Missouri S&T cDNA Resource; rM4 cDNA was provided by T. I. Bonner (National Institutes of Health, Bethesda, Md.). rM2 and rM3 were cloned from a rat brain cDNA library and sequence verified. hM1, rM2, rM3, hM4, and rM4 cDNAs were used to stably transfect CHO-K1 cells purchased from the American Type Culture Collection using Lipofectamine-2000. To make stable rM2, hM2, hM4, and rM4 cell lines for use in calcium mobilization assays, these cells also were stably transfected with a chimeric G-protein (Gqi5) (provided by B.R. Conklin, University of California, San Francisco) using Lipofectamine 2000. rM1, hM1, rM3, hM3, rM5, and hM5 cells were grown in Ham's F-12 medium containing 10% heat-inactivated fetal bovine serum (FBS), 20 mM HEPES, and 50 μg/mL G418 sulfate. rM2-Gqi5, hM2-Gqi5, and hM4-Gqi5 cells were grown in the same medium also containing 500 μg/mL Hygromycin B. Stable rM4-Gqi5 cells were grown in DMEM containing 10% heat-inactivated FBS, 20 mM HEPES, 400 μg/mL G418 sulfate, and 500 μg/mL Hygromycin B.
For high throughput measurement of agonist-evoked increases in intracellular calcium, CHO-K1 cells stably expressing muscarinic receptors were plated in growth medium lacking G418 and hygromycin at 15,000 cells/20 μL/well in Greiner 384-well black-walled, tissue culture (TC)-treated, clear-bottom plates (VWR). Cells were incubated overnight at 37° C. and 5% CO2. The next day, cells were washed using an ELX 405 (BioTek) with four washes (80 μL) of assay buffer then aspirated to 20 μL. Next, 20 μL of 16 μM Fluo-4/acetoxymethyl ester (Invitrogen, Carlsbad, Calif.) prepared as a 2.3 mM stock in DMSO and mixed in a 1:1 ratio with 10% (w/v) Pluronic F-127 and diluted in assay buffer was added to the wells and the cell plates were incubated for 50 min at 37° C. and 5% CO2. Dye was removed by washing with the ELX 405 (four 80 μL washes of assay buffer) then aspirated to 20 μL. Compound master plates were formatted in an 11 point CRC format (1:3 dilutions) in 100% DMSO with a starting concentration of 10 mM using the BRAVO liquid handler (Agilent). Test compound CRCs were then transferred to daughter plates (240 nL) using the Echo acoustic plate reformatter (Labcyte, Sunnyvale, Calif.) and then diluted into assay buffer (40 μL) to a 2× stock using a Thermo Fisher Combi (Thermo Fisher Scientific, Waltham, Mass.).
Calcium flux was measured using the Functional Drug Screening System (FDSS) 6000 (Hamamatsu Corporation, Tokyo, Japan) as an increase in the fluorescent static ratio. Compounds were applied to cells (20 μL, 2×) using the automated system of the FDSS 6000 at 4 s into the 300 s protocol and the data were collected at 1 Hz. At 144 s into the 300 s protocol, 10 μL of an EC20 concentration of the muscarinic receptor agonist acetylcholine was added (5×), followed by the addition of 12 μL an EC80 concentration of acetylcholine at the 230 s time point (5×). Agonist activity was analyzed as a concentration-dependent increase in calcium mobilization upon compound addition. Positive allosteric modulator activity was analyzed as a concentration-dependent increase in the EC20 acetylcholine response. Antagonist activity was analyzed as a concentration-dependent decrease in the EC80 acetylcholine response. Concentration-response curves were generated using a four-parameter logistical equation in XLFit curve fitting software (IDBS, Bridgewater, N.J.) for Excel (Microsoft, Redmond, Wash.) or Prism (GraphPad Software, Inc., San Diego, Calif.).
The calcium mobilization assay was also used to determine “efficacy”. […]

| SMILES | EC50 [µM] | Emax [%] |
| --- | --- | --- |
| Cn1cc(-c2ccc(CN3C(=O)C(O)(C(F)(F)F)c4ccccc43)c(F)c2)cn1 (single isomer, unassigned) [Compound B18, 1-(2-fluoro-4-(1-methyl-1H-pyrazol-4-yl)benzyl)-3-hydroxy-3-(trifluoromethyl)indolin-2-one] | > 30 |  |
| Cn1cc(-c2ccc(CN3C(=O)C(O)(CF)c4ccccc43)c(F)c2)cn1 (stereo not shown) [Compound B4, 1-(2-fluoro-4-(1-methyl-1H-pyrazol-4-yl)benzyl)-3-(fluoromethyl)-3-hydroxyindolin-2-one] | 4.6 | 52 |
| Cn1cc(-c2ccc(CN3C(=O)C(O)(C(F)(F)F)c4ccccc43)c(F)c2)cn1 (stereo not shown) [Compound B19] | 3.64 | 54 |
| Cn1cc(-c2ccc(CN3C(=O)C(C)(N)c4ccccc43)cc2)cn1 (racemic) [Compound B15, 3-amino-3-methyl-1-(4-(1-methyl-1H-pyrazol-4-yl)benzyl)indolin-2-one] | > 10 | 28 |
| Cn1cc(-c2ccc(CN3C(=O)C(N)c4ccccc43)c(F)c2)cn1 (stereo not shown) [Compound B20] | 1.36 | 46 |
| Cn1cc(-c2ccc(CN3C(=O)C(O)(C(F)(F)F)c4ccccc43)c(F)c2)cn1 (single isomer, unassigned) [Compound B2, 1-(2-fluoro-4-(1-methyl-1H-pyrazol-4-yl)benzyl)-3-hydroxy-3-(trifluoromethyl)indolin-2-one] | 3.4 | 68 |
| CC(C)n1cc(-c2ccc(CN3C(=O)C(O)(C(F)(F)F)c4ccccc43)c(F)c2)cn1 (stereo not shown) [Compound B13] | > 10 | 38 |
| Cn1cc(-c2ccc(CN3C(=O)C(O)(C(F)(F)F)c4ccccc43)cc2F)cn1 (stereo not shown) [Compound B11] | > 10 | 45 |
| CC1C(=O)N(Cc2ccc(-c3cnn(C)c3)cc2F)c2ccccc21 (stereo not shown) [Compound B9] | > 10 | 55 |
| CN(C)C1(C)C(=O)N(Cc2ccc(-c3cnn(C)c3)cc2)c2ccccc21 (racemic) [Compound B7, 3-(dimethylamino)-3-methyl-1-(4-(1-methyl-1H-pyrazol-4-yl)benzyl)indolin-2-one] | 5.5 | 43 |
| Cn1cc(-c2ccc(CN3C(=O)C(O)(C(F)(F)F)c4ccccc43)cc2)cn1 (stereo not shown) [Compound B12] | > 10 | 63 |
| Cn1cc(-c2ccc(CN3C(=O)C(O)(C(F)(F)F)c4ccccc43)cn2)cn1 (stereo not shown) [Compound B17] | > 10 | 54 |
| Cn1cc(-c2ccc(CN3C(=O)C(O)(C(F)(F)F)c4ccccc43)cc2F)cn1 (stereo not shown) [Compound B21] | > 10 | 38 |
| Cn1cc(-c2ccc(CN3C(=O)Cc4ccccc43)c(F)c2)cn1 [Compound B1] | 2.6 | 75 |
| Cn1cc(-c2ccc(CN3C(=O)C(O)(C(F)(F)F)c4ccccc43)c(Cl)c2)cn1 (stereo not shown) [Compound B10, 1-(2-chloro-4-(1-methyl-1H-pyrazol-4-yl)benzyl)-3-hydroxy-3-(trifluoromethyl)indolin-2-one] | > 10 | 41 |
| Cn1cc(-c2ccc(CN3C(=O)C(O)(C(F)(F)F)c4cc(F)ccc43)c(F)c2)cn1 (stereo not shown) [Compound B3] | 3.9 | 35 |
| CCn1cc(-c2ccc(CN3C(=O)C(O)(C(F)(F)F)c4ccccc43)c(F)c2)cn1 (stereo not shown) [Compound B14] | > 10 | 45 |
| Cn1cc(-c2ccc(CN3C(=O)C(O)(C(F)(F)F)c4ccccc43)c(F)c2)cn1 (stereo not shown) [Compound B6, 1-(2-fluoro-4-(1-methyl-1H-pyrazol-4-yl)benzyl)-3-hydroxy-3-(trifluoromethyl)indolin-2-one] | 5 | 60 |
| CCCn1cc(-c2ccc(CN3C(=O)C(O)(C(F)(F)F)c4ccccc43)c(F)c2)cn1 (stereo not shown) [Compound B16] | > 10 | 31 |
| Cc1n[nH]cc1-c1ccc(CN2C(=O)C(O)(C(F)(F)F)c3ccccc32)c(F)c1 (stereo not shown) [Compound B5] | 4.9 | 37 |
| Cn1cc(-c2ccc(CN3C(=O)C(C)(O)c4ccccc43)c(F)c2)cn1 (stereo not shown) [Compound B8, 1-(2-fluoro-4-(1-methyl-1H-pyrazol-4-yl)benzyl)-3-hydroxy-3-methylindolin-2-one] | > 10 | 52 |
| CC(c1ccc(-c2cnn(C)c2)cc1F)N1C(=O)Cc2ccccc21 (stereo not shown) [Compound B24] | > 10 | 44 |
